Results taken from patent publication US8563500B2, “Methods and compounds for treating diseases caused by reactive oxygen species” (Deutsches Krebsforschungszentrum Stiftung des Offentlichen …, priority 2007, dated 2013).
Like-named read-outs stand apart in the source and are kept apart here.

How the values were obtained:
Jurkat J16-145 cells [1] = experiment: Activation-induced (PMA or anti-CD3) ROS generation, DCFDA oxidation by FACS; assay type: cell-based, human
CD95L [2] = experiment: Activation-induced CD95L expression, semi-quantitative RT-PCR and quantitative PCR, Jurkat cells; assay type: cell-based, human; details: for reduction of CD95L induction, quantitative PCR: plate-bound anti-CD3 (TCR triggering)
Jurkat J16-145 cells [3] = experiment: Cellular ATP determination; assay type: cell-based, human; details: high concentrations of inhibitors, 2 h
CD95L [4] = experiment: Anti-CD3 induced CD95L expression in primary human T cells (PCR); assay type: cell-based; details: day 6 T cells
[5] = system: primary human T cells (day 6 T cells); experiment: Anti-CD3 induced ROS generation (DCFDA) in primary human T cells; assay type: cell-based; details: preactivated primary human T cells (day 6); anti-CD3 30 min
[6] = system: primary human T cells (day 6 T cells); experiment: AICD in primary human T cells, specific cell death; assay type: cell-based; details: plate-bound anti-CD3 24 h
Experimental: FIG. 9. Primary human T cells depend on complex I-originated activation-induced ROS for CD95L expression and AICD. […] Cells were stained with DCFDA and MFI was measured by FACS. […] Next, RNA was isolated, reverse-transcribed, and amplified using CD95L- and actin-specific primers. C, T cells were transfected with 900 nM of scrambled- (ctr) or two different NDUFAF1-siRNA oligonucleotides (#1, #2). After 48 h, RNA was isolated, reverse-transcribed, and amplified using NDUFAF1- and actin-specific primers. D, 72 h after transfection with 900 nM of scrambled- (ctr) or NDUFAF1-siRNA oligonucleotides (#1, #2) primary human T were stimulated by plate-bound anti-CD3 antibodies for 30 min and oxidative signal was determined as in (A). […] (ii) For 1 h (F), to detect changes in CD95L expression (left panel semi quantitative PCR; right panel quantitative PCR). (iii) For 24 h (G) to assessed AICD by a drop in FCS/SSC index. Insert show T cells cotreated with or without CD95L neutralizing antibody (results were recalculated to “specific cell death”). H, Schematic diagram of TCR induced oxidative signalling.
Isolation of human peripheral T cells. […]
(§1) Assessment of cell death. […] Cell death was assessed by a drop in the forward-to-side-scatter (FSC/SSC) profile in comparison to living cells and recalculated to “specific cell death” as described (25).

complex I [7] = details: isolated mitochondria; reference 6; cited from earlier work
CD95 receptor [8] = experiment: Apoptosis induced by direct stimulation of the CD95 receptor, primary T cells; assay type: cell-based, human; details: data not shown
IL-2, IL-4, or TNF-alpha = experiment: Cytokine expression in activated T cells (RT-PCR); assay type: cell-based, human
CD95 receptor [9] = experiment: Apoptosis induced via direct stimulation of the CD95 receptor, Jurkat cells; assay type: cell-based, human; details: data not shown
Jurkat J16-145 cells [10] = experiment: Activation-induced T cell death (AICD), specific cell death by FSC/SSC, Jurkat cells; assay type: cell-based, human; details: PMA/ionomycin or plate-bound anti-CD3, 24 h
Experimental: as §1

complex I [11] = details: references 6, 18; cited from earlier work
[12] = Jurkat J16-145, anti-CD3 or PMA/ionomycin, 1 h

c1ccc2c(c1)[I+]c1ccccc1-2 [DPI]
effect on PMA-induced ROS generation / oxidative signal, in words (Jurkat J16-145 cells [1]; Jurkat J16-145, PMA 30 min): only a moderate effect

CC[C@H]1/C=C/C=C/C[C@@H](C)[C@H](O)[C@@](C)(O)C(=O)[C@@H](C)[C@H](O)[C@@H](C)C(=O)[C@@H](C)[C@H](O)[C@@H](C)/C=C/C(=O)O[C@@H]2[C@H](C)[C@H](CC1)O[C@]1(CC[C@H](C)[C@H](C[C@@H](C)O)O1)[C@H]2C [oligomycin]
reduction of CD95L induction, quantitative PCR (CD95L [2]; Jurkat J16-145, 1 h): no effect
ATP depletion compared to rotenone and piericidin A (Jurkat J16-145 cells [3]): more efficient ATP depletion
effect on activation-induced (TCR- and PMA-induced) ROS generation, in words (Jurkat J16-145 cells [1]; Jurkat J16-145, anti-CD3 or PMA, 30 min): no effect or increased the oxidative signal

CN(C)CCCn1cc(C2=C(c3c[nH]c4ccccc34)C(=O)NC2=O)c2ccccc21 [BIM, bisindolylmaleimide I]
effect on activation-induced CD95L expression (RT-PCR), in words (CD95L [2]): dose dependent inhibition of CD95L expression

COc1cc(C(C)=O)ccc1O [apocynin]
effect on PMA-induced ROS generation / oxidative signal, in words (Jurkat J16-145 cells [1]; Jurkat J16-145, PMA 30 min): only a moderate effect

C/C=C(\C)[C@H](O)[C@H](C)/C=C(C)/C=C/C/C(C)=C/Cc1nc(OC)c(OC)c(O)c1C [piericidin A]
effect on activation-induced CD95L expression (RT-PCR), in words (CD95L [2]; [12]): abolished CD95L transcription almost completely
effect on activation-induced (TCR- and PMA-induced) ROS generation, in words (Jurkat J16-145 cells [1]): able to inhibit

O=C(CC(=O)C(F)(F)F)c1cccs1 [TTFA, 1,1,1-thenoyl trifluoroacetone]
effect on activation-induced (TCR- and PMA-induced) ROS generation, in words (Jurkat J16-145 cells [1]): no effect or increased the oxidative signal

C=C(C)[C@H]1Cc2c(ccc3c2O[C@@H]2COc4cc(OC)c(OC)cc4[C@@H]2C3=O)O1 [rotenone]
effect on activation-induced CD95L expression (RT-PCR), in words (CD95L [2]; [12]): abolished CD95L transcription almost completely
reduction of CD95L induction, quantitative PCR (CD95L [2]; Jurkat J16-145, 1 h): more than 80%
effect on activation-induced (TCR- and PMA-induced) ROS generation, in words (Jurkat J16-145 cells [1]): able to inhibit
effect on CD95L expression, in words (CD95L [4]; anti-CD3 1 h): exclusively inhibited
effect on activation-induced (anti-CD3) oxidative signal, in words [5]: exclusively inhibited

CN(C)C(=N)N=C(N)N [metformin]
effect on AICD (cell death), in words [6]: nearly completely inhibited
reduction of CD95L expression, quantitative PCR (CD95L [2]; Jurkat J16-145, PMA/ionomycin, 1 h): 50%
effect on activation-induced CD95L expression (RT-PCR), in words (CD95L [2]; [12]): inhibition of CD95L expression
reduction of CD95L induction, quantitative PCR (CD95L [2]; Jurkat J16-145, 1 h): up to 80%
inhibition of complex I-induced ROS production (complex I [7]): efficiently inhibit
apoptosis induced by direct stimulation of the CD95 receptor (CD95 receptor [8]): not affected
effect on PMA-induced ROS generation / oxidative signal, in words (Jurkat J16-145 cells [1]): diminished oxidative signal
expression of cytokines such as IL-2, IL-4, or TNF-alpha (IL-2, IL-4, or TNF-alpha): can be reduced
inhibition of induction of CD95L expression (CD95L [4]; plate-bound anti-CD3 1 h): up to 70%
apoptosis induced via direct stimulation of the CD95 receptor (CD95 receptor [9]): not affected
effect on AICD, in words (Jurkat J16-145 cells [10]): drastically reduced AICD
effect on activation-induced (anti-CD3) oxidative signal, in words [5]: inhibits the anti-CD3 induced oxidative signal
inhibition of complex I (complex I [11]): mildly inhibits
